Measurements as given in ChEMBL document CHEMBL1135029, “Novel dihydropyrazine analogues as NPY antagonists” (Bioorg Med Chem Lett, 2002).

These compounds were tested against T1, Neuropeptide Y receptor type 1 (Homo sapiens, UniProt P25929) (assay: Binding affinity against Neuropeptide Y receptor type 1 using I-PYY as a radioligand in human neuroblastoma SK-N-MC cells).
T1 sequence (P25929 whole entry): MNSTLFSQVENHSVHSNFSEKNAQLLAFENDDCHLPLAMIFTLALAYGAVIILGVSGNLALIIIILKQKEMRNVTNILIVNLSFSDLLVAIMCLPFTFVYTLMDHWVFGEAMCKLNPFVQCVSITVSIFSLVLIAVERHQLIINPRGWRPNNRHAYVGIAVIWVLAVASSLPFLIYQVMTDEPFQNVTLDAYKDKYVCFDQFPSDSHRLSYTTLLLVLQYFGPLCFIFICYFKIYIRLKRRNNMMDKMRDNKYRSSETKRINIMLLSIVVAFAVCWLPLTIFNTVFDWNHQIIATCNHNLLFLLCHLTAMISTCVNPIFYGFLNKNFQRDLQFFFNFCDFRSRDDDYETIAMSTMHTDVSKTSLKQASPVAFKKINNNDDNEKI
Type: cell-based
COC(=O)C1=C(C)N=C(C)/C(=C(/O)OC)C1c1cccc(NC(=O)NCCCN2CCC(c3cccc(OC)c3)CC2)c1 (stereo not drawn) showed an IC50 of 4.2 nM.

What follows are compounds tested against T1, Neuropeptide Y receptor type 1 (assay: Inhibition of I-PYY binding to Nueopeptide Y1 receptor expressed in human neuroblastoma SK-N-MC cells).
Type: cell-based
Work on COC(=O)C1=C(C)N=C(C)/C(=C(/O)OC)C1c1cccc(N/C(=N/CCCN2CCC(c3ccccc3)CC2)NC#N)c1 (stereo not drawn) yielded an IC50 of 5.4 nM. With COC(=O)C1=C(C)N=C(C)/C(=C(/O)OC)N1c1cccc(N/C(=N/CCCN2CCC(c3ccccc3)CC2)NC#N)c1 the IC50 was 268 nM. COC(=O)C1=C(C)N=C(C)/C(=C(/O)OC)C1c1cccc(N/C(S)=N/CCCN2CCN(C3CCCCC3)CC2)c1 (stereo not drawn) gave an IC50 of 132 nM. In the case of COC(=O)C1=C(C)N=C(C)/C(=C(/O)OC)N1c1cccc(NC(=O)NCCCN2CCC(c3cccc(OC)c3)CC2)c1, the IC50 is reported as 554 nM. Work on COC(=O)C1=C(C)N=C(C)/C(=C(/O)OC)N1c1cccc(N/C(S)=N/CCCN2CCN(C3CCCCC3)CC2)c1 yielded an IC50 greater than 1000 nM. COC(=O)C1=C(C)N=C(C)/C(=C(/O)OC)C1c1cccc(N/C(=N/CCCN2CCC(C(C)(C)C)CC2)NC#N)c1 (stereo not drawn) gave an IC50 of less than 1 nM. With COC(=O)C1=C(C)N=C(C)/C(=C(/O)OC)C1c1cccc(NC(=O)NCCCN2CCN(C3CCCCC3)CC2)c1 (stereo not drawn) the IC50 was 176 nM. Compound COC(=O)C1=C(C)N=C(C)/C(=C(/O)OC)N1c1cccc(N/C(S)=N/CCCN2CCC(C(C)(C)C)CC2)c1 has an IC50 greater than 1000 nM. COC(=O)C1=C(C)N=C(C)/C(=C(/O)OC)N1c1cccc(N/C(S)=N/CCCN2CCC(c3cccc(OC)c3)CC2)c1 was tested, and the IC50 was 945 nM. For COC(=O)C1=C(C)N=C(C)/C(=C(/O)OC)C1c1cccc(N/C(S)=N/CCCN2CCC(c3cccc(OC)c3)CC2)c1 (stereo not drawn), the IC50 was 12.8 nM. COC(=O)C1=C(C)N=C(C)/C(=C(/O)OC)N1c1cccc(NC(=O)NCCCN2CCN(C3CCCCC3)CC2)c1 was tested, and the IC50 was 434 nM. COC(=O)C1=C(C)N=C(C)/C(=C(/O)OC)N1c1cccc(N/C(=N/CCCN2CCC(C(C)(C)C)CC2)NC#N)c1 showed an IC50 of 231 nM.
